In ChEMBL document CHEMBL5050850, “Compositions and methods of using the same for treatment of neurodegenerative and mitochondrial disease” (2020):
pEC50: −log10 of the molar value. ≈ marks a conversion by molar mass, not a printed value. Values belong to the molecule of their own block, whether it stands above or below them.

Tests used:
[1] = Solubility of compound in PBS; assay type: physicochemical
[2] = Induction of mitophagy in human HeLa MKYP cells treated with FCCP/oligomycin for 6 hrs and measured by FACS analysis; assay type: functional, cell-based
HeLa [3] = test: Cytotoxicity against human HeLa MKYP cells assessed as percentage of DAPI-positive cells at 50 uM and measured by DAPI staining method; assay type: toxicity, cell-based
HeLa [4] = test: Cytotoxicity against human HeLa MKYP cells assessed as cell death at 25 uM treated with FCCP/oliogmycin and measured DAPI staining method assay relative to control; assay type: toxicity, cell-based
HeLa [5] = test: Cytotoxicity against human HeLa MKYP cells assessed as cell death at 25 uM and measured DAPI staining method assay relative to control; assay type: toxicity, cell-based
[6] = Induction of mitophagy in human HeLa MKYP cells treated at 6.3 uM with FCCP/oligomycin for 6 hrs and measured by FACS analysis relative to control; assay type: functional; details: 6 h, 6.3 µM
[7] = Ratio of highest compound concentration with no observable mitotoxicity to EC50 of compound to induce mitophagy in human HeLa MKYP cells; assay type: functional
[8] = Cmax in mouse at 1 mg/kg, iv; assay type: ADME, organism-based; design: route intravenous, dose 1 mg/kg; details: in vivo
[9] = Observed AUC in mouse at 1 mg/kg, iv; assay type: ADME, organism-based; design: dose 1 mg/kg; details: in vivo
[10] = AUC in mouse at 1 mg/kg, iv; assay type: ADME, organism-based; design: dose 1 mg/kg; details: in vivo
[11] = Cmax in mouse at 10 mg/kg, po; assay type: ADME, organism-based; design: route oral, dose 10 mg/kg; details: in vivo
[12] = Half-life in mouse at 10 mg/kg, po; assay type: ADME, organism-based; details: in vivo
[13] = AUC in mouse at 10 mg/kg, po; assay type: ADME, organism-based; design: dose 10 mg/kg; details: in vivo
[14] = Oral bioavailability in mouse at 10 mg/kg; assay type: ADME, organism-based; details: in vivo
[15] = Cmax in mouse at 50 mg/kg, po; assay type: ADME, organism-based; design: route oral, dose 50 mg/kg; details: in vivo
[16] = Half-life in mouse at 50 mg/kg, po; assay type: ADME, organism-based; details: in vivo
[17] = Observed AUC in mouse 50 mg/kg, po; assay type: ADME, organism-based; design: dose 50 mg/kg; details: in vivo
[18] = AUC in mouse at 50 mg/kg, po; assay type: ADME, organism-based; design: dose 50 mg/kg; details: in vivo
[19] = Oral bioavailability in mouse at 50 mg/kg; assay type: ADME, organism-based; details: in vivo
[20] = AUC (infinity) in mouse at 1 mg/kg, iv; assay type: ADME, organism-based; design: route intravenous, time infinity, dose 1 mg/kg; details: in vivo
[21] = AUC (extrapolated) in mouse at 1 mg/kg, iv; assay type: ADME, organism-based; details: in vivo
[22] = MRT (infinity) in mouse at 1 mg/kg, iv; assay type: ADME, organism-based; details: in vivo
[23] = AUC (infinity) in rat at 1 mg/kg, iv; assay type: ADME, organism-based; design: route intravenous, time infinity, dose 1 mg/kg; details: in vivo
[24] = AUC (extrapolated) in rat at 1 mg/kg, iv; assay type: ADME, organism-based; details: in vivo
[25] = MRT (infinity) in rat at 1 mg/kg, iv; assay type: ADME, organism-based; details: in vivo
[26] = Initial plasma concentration in mouse at 10 mg/kg, po; assay type: ADME, organism-based; details: in vivo
[27] = AUC (infinity) in mouse at 10 mg/kg, po; assay type: ADME, organism-based; design: route oral, time infinity, dose 10 mg/kg; details: in vivo
[28] = Apparent volume of distribution in mouse at 10 mg/kg, po; assay type: ADME, organism-based; details: in vivo
[29] = MRT (infinity) in mouse at 10 mg/kg, po; assay type: ADME, organism-based; details: in vivo
[30] = Initial plasma concentration in rat at 10 mg/kg, po; assay type: ADME, organism-based; details: in vivo
[31] = AUC (infinity) in rat at 10 mg/kg, po; assay type: ADME, organism-based; design: time infinity, route oral, dose 10 mg/kg; details: in vivo
[32] = Apparent volume of distribution in rat at 10 mg/kg, po; assay type: ADME, organism-based; details: in vivo
[33] = Brain concentration in mouse at 10 mg/kg, po measured at 0.5 hrs; assay type: ADME, organism-based; details: read-out: Drug uptake
[34] = Brain concentration in mouse at 10 mg/kg, po measured at 1 hr; assay type: ADME, organism-based; details: read-out: Drug uptake
[35] = Brain concentration in mouse at 10 mg/kg, po measured at 2 hrs; assay type: ADME, organism-based; details: read-out: Drug uptake
[36] = Plasma concentration in mouse at 10 mg/kg, po measured at 0.5 hrs; assay type: ADME, organism-based
[37] = Plasma concentration in mouse at 10 mg/kg, po measured at 1 hr; assay type: ADME, organism-based
[38] = Plasma concentration in mouse at 10 mg/kg, po measured at 2 hrs; assay type: ADME, organism-based
[39] = Kidney concentration in mouse at 10 mg/kg, po measured at 0.5 hrs; assay type: ADME, organism-based; details: read-out: Drug uptake
[40] = Kidney concentration in mouse at 10 mg/kg, po measured at 1 hr; assay type: ADME, organism-based; details: read-out: Drug uptake
[41] = Kidney concentration in mouse at 10 mg/kg, po measured at 2 hrs; assay type: ADME, organism-based; details: read-out: Drug uptake
[42] = Brain concentration in mouse at 50 mg/kg, po measured at 0.5 hrs; assay type: ADME, organism-based; details: read-out: Drug uptake
[43] = Brain concentration in mouse at 50 mg/kg, po measured at 1 hr; assay type: ADME, organism-based; details: read-out: Drug uptake
[44] = Brain concentration in mouse at 50 mg/kg, po measured at 2 hrs; assay type: ADME, organism-based; details: read-out: Drug uptake
[45] = Plasma concentration in mouse at 50 mg/kg, po measured at 0.5 hrs; assay type: ADME, organism-based
[46] = Plasma concentration in mouse at 50 mg/kg, po measured at 1 hr; assay type: ADME, organism-based
[47] = Plasma concentration in mouse at 50 mg/kg, po measured at 2 hrs; assay type: ADME, organism-based
[48] = Kidney concentration in mouse at 50 mg/kg, po measured at 0.5 hrs; assay type: ADME, organism-based; details: read-out: Drug uptake
[49] = Kidney concentration in mouse at 50 mg/kg, po measured at 1 hr; assay type: ADME, organism-based; details: read-out: Drug uptake
[50] = Kidney concentration in mouse at 50 mg/kg, po measured at 2 hrs; assay type: ADME, organism-based; details: read-out: Drug uptake
[51] = Half-life in rat at 10 mg/kg, po; assay type: ADME, organism-based; details: in vivo

solubility [1]: 1 µM (≈ 0.35 µg/mL) | pEC50 [2]: 5.97
Structure (SMILES): Fc1ccc2c(c1)CCCC2Nc1ncnc2[nH]c(C(F)(F)F)cc12 (configuration not stated)
Activity (HeLa [3]): 30.1% | Activity (HeLa [4]): 30.1% | Activity (HeLa [5]): 3.27%

solubility [1]: 1 µM (≈ 0.332 µg/mL) | pEC50 [2]: 6.36 | Cmax [8]: 1450 nM | AUC [9]: 1.4 µM·h | AUC [10]: 1.5 µM·h | Cmax [11]: 1080 nM | t1/2 [12]: 2 h | AUC [13]: 2.6 µM·h | bioavailability [14]: 17.4% | Cmax [15]: 9800 nM | half-life [16]: 3.9 h | AUC [17]: 27.4 µM·h | AUC [18]: 35.5 µM·h | bioavailability [19]: 37.9% | AUC(0-inf) [20]: 487 ng·h/mL | %AUCextra [21]: 1.1% | MRT inf [22]: 0.7 h | AUC(0-inf) [23]: 838 ng·h/mL | %AUCextra [24]: 2.5% | MRT inf [25]: 2 h | C0 [26]: 0.5 ng/mL | AUC [27]: 803.3 ng·h/mL | Vz [28]: 5.4 L/kg | MRT inf [29]: 17.4 h | C0 [30]: 2.6 ng/mL | AUC [31]: 7348.4 ng·h/mL | Vz [32]: 2.2 L/kg | concentration at 0.5 h [33]: 526 ng/g | concentration at 1 h [34]: 737 ng/g | concentration at 2 h [35]: 435 ng/g | concentration at 0.5 h [36]: 372 ng/g | concentration at 1 h [37]: 276 ng/g | concentration at 2 h [38]: 146 ng/g | concentration at 0.5 h [39]: 1050 ng/g | concentration at 1 h [40]: 1290 ng/g | concentration at 2 h [41]: 893 ng/g | concentration at 0.5 h [42]: 3340 ng/g | concentration at 1 h [43]: 6370 ng/g | concentration at 2 h [44]: 3980 ng/g | concentration at 0.5 h [45]: 1900 ng/g | concentration at 1 h [46]: 2080 ng/g | concentration at 2 h [47]: 1420 ng/g | concentration at 0.5 h [48]: 6430 ng/g | concentration at 1 h [49]: 11500 ng/g | concentration at 2 h [50]: 7480 ng/g | t1/2 [51]: 3.7 h
Structure (SMILES): FC(F)(F)c1cc2c(NC3CCCc4ccccc43)ncnc2[nH]1 (stereo in doubt)
Activity [6]: 55.5% | Activity (HeLa [3]): 2.1% | Activity (HeLa [4]): 10.7% | Activity (HeLa [5]): 2.59% | Ratio [7]: 40.02

solubility [1]: 1 µM (≈ 0.346 µg/mL) | pEC50 [2]: 6.22
Structure (SMILES): C[C@H]1CCc2ccccc2[C@@H]1Nc1ncnc2[nH]c(C(F)(F)F)cc12
Activity (HeLa [3]): 13.3% | Activity (HeLa [4]): 13.32% | Activity (HeLa [5]): 3.79% | Ratio [7]: 8.69
